The test system of series [1] is proximal convoluted tubule epithelium of the kidney. Description: Histologic examination of kidney cortex tissue of Gentamicin-treated rats. It is filed as in vivo, rat. The method, then: (§1) Gentamicin, a known kidney toxin, was used to treat rats at a range of doses known to produce varying degrees of bistopathologically evident kidney response. […] The rat groups included 10 male rats per treated group, and 20 male rats in the untreated (control) group. Blood samples from rats treated at 40 mg/kg/day after 8 days were taken for proteome analysis, and kidney cortex tissue samples from rats treated at 0.1, 1.0, 10, and 40 mg/kg/day after 8 and 22 days for each group were taken for proteome analysis. Kidney cortex tissue samples were also prepared for histologic examination according to standard tissue preparation protocols.
(§2) At 60 mg/kg/day there were changes in urine biochemistry parameters (raised NAG (N-acetyl-beta-D-glucosaminidase), GGT (gamma-glutamyl-transpeptidase) and urine volume, depressed specific gravity), consistent with kidney damage.

In a further series the test system is rats. Description: Urine biochemistry parameters in Gentamicin-treated rats. Particulars: 60 mg/kg/day. The series is classed as in vivo, rat. The method, then: as §1, §2

The values that follow come from patent US20040053309A1, “Proteins, genes and their use for diagnosis and treatment of kidney response” (priority 2000, published 2004).

As for Gentamicin, the “histologic examination of kidney” value in series [1] (60 mg/kg) was “single cell necrosis and loss of brush border of the proximal convoluted tubule epithelium of the kidney”. In series [1] (seven days after the withdrawal of treatment), the “histologic finding after withdrawal of treatment” value is recorded as “evidence of cortical tubular regeneration”. For the same substance, in the series on rats, the “urine GGT (gamma-glutamyl-transpeptidase)” value is “raised”, the “urine NAG (N-acetyl-beta-D-glucosaminidase)” value is reported as “raised” and the urine specific gravity result was “depressed”.
